In patent US20230107216A1, “PANTETHEINE DERIVATIVES AND USES THEREOF” (Comet Therapeutics, Inc., priority 2018, published 2023):
Where two headings read alike, the source gives them in different places.

Legend:
[1] = system: tyrosine hydroxylase positive mesencephalic neurons injured by 6-OHDA; assay: Neuroprotective effect on damage induced by 6-OHDA on culture of mesencephalic neurons; assay type: cell-based; settings: Rattus norvegicus, Neuron, 6-OHDA 15 μM, 48h, read-out: % reversion of TH positive neurons (6-OHDA-mediated degradation of dopaminergic neurons)
Method: The protective effect of compounds of the present disclosure was determined on 6-OHDA-mediated injury on mesencephalon neuronal cultures.
A female Wistar rat (Janvier; France) of 15 days gestation was terminated by cervical dislocation, the fetuses were removed from the uterus and their brains were harvested and placed in ice-cold medium (Leibovitz's L15 medium, Gibco). Only ventral mesencephalic flexure was used for the cell preparations. The midbrain was dissociated by trypsinization. The reaction was stopped, and the suspension was triturated and centrifuged. The pellet of dissociated cells was resuspended in chemically defined medium consisted of Neurobasal (Gibco, 21103049), containing B27 supplement (Gibco, A3582801) and L-glutamine (Gibco, 25030081), 10 ng/ml (BDNF; Pepro Tech, France, 450-02) and 1 ng/ml (GDNF; Pepro Tech, 450-51).
Viable primary rat embryo mesencephalic cells were counted and seeded on 96-multi-wells plate precoated with poly-L-lysine. Cells were maintained in a humidified incubator at 37° C. in 5% CO2-95% air atmosphere and medium changed on day 2. On day 6, the culture medium was removed and replaced by new media without neurotrophic factors containing the compounds of the present disclosure (50-10 μM) or vehicle (0.1% DMSO). After 1h exposure, injury of mesencephalon neuronal cultures was induced by 6-OHDA (15 μM) for further 48h. A mixture of the growth factors GDNF (1 ng/ml) and BDNF (10 ng/ml) were used as reference compound. On day 8, the tyrosine hydroxylase positive neurons were evaluated. Cultures were fixed 30 min at 4° C. with paraformaldehyde in PBS (4%, Sigma). After, cells were permeabilized with 0.1% Triton X100 for 30 min, saturated with PBS containing 3% of BSA (bovine serum albumin) and incubated 2h with anti-tyrosine hydroxylase antibody (Sigma, 1:10000; clone TH-2) at 1/10000 in PBS containing 0.5% of BSA. Cells were washed three times with PBS containing 0.5% of BSA and incubated 1h with goat anti mouse antibody coupled with AF488 (Invitrogen A11001) diluted at 1/1000 in PBS containing 0.5% of BSA. Finally, nuclei were stained with DAPI (Thermo fisher, D1306) at 1/1000 in PBS containing 0.5% of BSA. After rinsing with PBS, the plate was visualized and examined with Cell Insight HCS (Thermo Scientific) to determine the number of tyrosine hydroxylase positive cells per well.
The results for each well were expressed as a percentage by setting the density of tyrosine hydroxylase positive cells under control conditions to 100%. Then the result for each condition was reported as mean±SEM from 4 independent cultures.
A global analysis of the data was performed using a one-way analysis of variance (ANOVA), followed by Fisher's Protected Least Significant Difference when applicable. The level of significance was set to p<0.05.

[2] = system: Venular Endothelial cells (HUVEC) (4H system); assay: BioMAP 4H system (IL-4 and histamine); assay type: cell-based, human; settings: procedure of Example 826; for % decrease in Eotaxin-3 / % decrease in MCP-1 / inhibition at 1 µM: 1 uM; for inhibition at 10 µM / inhibition at 1 µM: Homo sapiens, HUVEC, 24 h
[3] = system: Peripheral blood mononuclear cells co-cultured with B-cells (BT system); assay: cells; settings: Homo sapiens, 72 h
[4] = system: Subnormal activation of pyruvate dehydrogenase complex (PDH) primary fibroblasts GM01503 (GM1503A); assay: Total NAD+ + NADH and NAD+ (NAD/NADH-Glo), PDH fibroblasts GM01503; assay type: cell-based; settings: Homo sapiens, Fibroblast, 24h, read-out: Increase in Total NAD+ + NADH
Method: Primary adherent fibroblasts were cultured in minimum essential medium (MEM) (Gibco, 25030081) supplemented with 2 mM L-Glutamine (Gibco, 25030081), 15% fetal bovine serum (FBS) (Gibco, 26400044) and 1% penicillin/streptomycin (Gibco, 5140122) at 37° C. and 5% CO2. Cells were collected for either passaging or experiment at ˜70-80% confluence. Cells were obtained by trypsinization and seeded in cell culture microplates either white plate (Thermo Fisher Scientific, 152028) for luminescent measurement or black plate (Thermo Fisher Scientific, 165305) for fluorescent based read out for different assays listed below. Cells were obtained by trypsinization and […] were seeded and allowed to adhere for 16-18 hours to have confluency around 70-80% in the cell well with culture media. After 24 hours prior to measurements (37° C., 5% CO2) media was changed to Dulbecco's Modified Eagle Medium (DMEM, Agilent Seahorse cat #103575-100) with the appropriate supplements as stated below.
Primary fibroblasts assayed were Propionic Acidemia (PA) (GM03590 Coriell Institute for Medical Research, Tsi 6337 Trans-Hit Bio), Methylmalonic Acidemia (MMA) (Tsi 5224 Trans-Hit Bio), Subnormal activation of pyruvate dehydrogenase complex (PDH) (GM01503 Coriell Institute for Medical Research), Very long-chain acyl-CoA dehydrogenase (VLCAD) (GM17475), Leigh Syndrome (LS) (GM03672, GM13411 Coriell Institute for Medical Research), Pyruvate Carboxylase Deficiency (PC) (GM00444 Coriell Institute for Medical Research). 10 μM of Compounds were added for 2 hours in PA, MMA lines and for 24h for the other fibroblast lines.
Assay was performed according to manufacturer instructions (NAD/NADH-Glo Assay Promega, G9072). The NAD/NADH-Glo Assay is a bioluminescent assay for detecting total oxidized and reduced nicotinamide adenine dinucleotides (NAD+ and NADH, respectively) from which ratio of NAD/NADH can be calculated. Briefly, for every assay a 12-point standard curve was prepared ranging from 400 nM to 0.625 nM. Media was removed and replaced with 50 μl of PBS for both assays.
For individual NAD+ and NADH measurement, 50 μl of 1% DTAB (Sigma Cat #D5047) (cell lysis reagent) in 0.2N NaOH was added to the plate and a total 100 μl of lysate was split into two plates with 50 μl each. 25 μl of 0.4N HCl were added to the NAD+ plate and both NAD+ and NADH plate were heated at 60° C. for 15 minutes. The acid and heat treatment destroyed NADH allowing individual NAD+ measurement while heating in basic conditions destroys NAD+ allowed individual NADH measurements. The plates were allowed to come to room temperature for 10 minutes and Trizma base (Sigma, T1699) was added to the NAD+ plate to neutralize the acid and HCl Trizma hydrochloride (Sigma, T2694) was added to the NADH plate. The NADNADH glo reagent was prepared by adding: 625 μl of NAD cycling substrate, 125 μl of reductase, 125 μl of reductase substrate, 125 μl NAD cycling enzyme to total of the 25 ml of NAD GLO reagent. 1:1 ratio of total volume of reagent was added to the individual NAD+, NADH measurement (total 100 μl) and 50 μl for total NAD/NAH measurement. Luminescence was read between 30-60 minutes within the linear range.
A total dead cell count was performed as described in Example 817 and only alive cells were used for analysis.

[5] = 10 uM, read-out: % decrease in E-Selectin
[6] = read-out: % decrease in VEGFRII
[7] = 10 uM, read-out: % decrease in VEGFRII
[8] = read-out: % decrease in E-Selectin

Compound: C[C@@H](O)CC(=O)CC(=O)SCCNC(=O)CCNC(=O)[C@H](O)C(C)(C)CO [Compound 42, (2R)-2,4-dihydroxy-N-[2-[(2-[[(5R)-5-hydroxy-3-oxohexanoyl]sulfanyl]ethyl)carbamoyl]ethyl]-3,3-dimethylbutanamide]
- inhibition at 50 µM [1]: ≥ 30%
- % decrease in Eotaxin-3 [2]: ≥10%
- % increase in MCP-1 ([2]; 10 uM): ≥10%
- % increase in VEGRII ([2]; 10 uM): ≥10%
- inhibition at 10 µM [2, 5]: ≥ 10%

Compound: COC(=O)CCC(=O)SCCNC(=O)CCNC(=O)[C@H](OC(=O)CNC(C)=O)C(C)(C)CO [Compound 1298, methyl 4-[(2-[3-[(2R)-2-[(2-acetamidoacetyl)oxy]-4-hydroxy-3,3-dimethylbutanamido]propanamido]ethyl)sulfanyl]-4-oxobutanoate]
- % decrease in Eotaxin-3 [2]: ≥10%
- % decrease in MCP-1 [2]: ≥10%
- inhibition at 1 µM [2, 6]: ≥ 10%
- activation at 1 µM ([3]; read-out: % increase in sIL-6): ≥ 10%

Compound: CC(C)(CO)[C@@H](O)C(=O)NCCC(=O)NCCSC(=O)CCC(=O)O [Compound 1, (R)-4-((2-(3-(2,4-dihydroxy-3,3-dimethylbutanamido)propanamido)ethyl)thio)-4-oxobutanoic acid]
- inhibition at 10 µM [1]: ≥ 10%

Compound: CC(C)(CO)[C@@H](O)C(=O)NCCC(=O)NCCSC(=O)CCCN [Compound 370, (2R)—N-[2-([2-[(4-aminobutanoyl)sulfanyl]ethyl]carbamoyl)ethyl]-2,4-dihydroxy-3,3-dimethylbutanamide]
- inhibition at 50 µM [1]: ≥ 30%

Compound: COC(=O)CCC(=O)SCCNC(=O)CCNC(=O)[C@H](O)C(C)(C)COC(C)=O [Compound 138]
- inhibition at 1 µM [2, 6]: ≥ 20%
- inhibition at 1 µM ([3]; read-out: % decrease in sIL-17): ≥ 20%

Compound: CC(C)(CO)[C@@H](O)C(=O)NCCC(=O)NCCSC(=O)CCCO [Compound 1304, (2R)-2,4-dihydroxy-N-[2-([2-[(4-hydroxybutanoyl)sulfanyl]ethyl]carbamoyl)ethyl]-3,3-dimethylbutanamide]
- activation at 10 µM ([4]; PDH GM1503A P10, assay condition B): ≥ 10%

Compound: COC(=O)CCC(=O)SCCNC(=O)CCNC(=O)[C@H](OC(=O)CN)C(C)(C)CO [Compound 1294, methyl 4-[(2-[3-[(2R)-2-[(2-aminoacetyl)oxy]-4-hydroxy-3,3-dimethylbutanamido]propanamido]ethyl)sulfanyl]-4-oxobutanoate]
- % decrease in MCP-1 [2]: ≥10%
- inhibition at 1 µM ([3]; read-out: % decrease in sIL-17): ≥ 20%

Compound: CC(O)C(C(=O)SCCNC(=O)CCNC(=O)[C@H](O)C(C)(C)CO)C(C)O (stereo partly drawn) [Compound 1285, (2R)-2,4-dihydroxy-N-[2-[(2-[[3-hydroxy-2-(1-hydroxyethyl)butanoyl]sulfanyl]ethyl)carbamoyl]ethyl]-3,3-dimethylbutanamide]
- activation at 10 µM ([4]; PDH GM1503A P10, assay condition A): ≥ 10%

Compound: C[C@@H](O)CC(=O)SCCNC(=O)CCNC(=O)[C@H](O)C(C)(C)CO [Compound 38, S-2-{3-[(R)-2,4-dihydroxy-3,3-dimethylbutyrylamino]propionylamino} ethyl (R)-3-hydroxybutanethioate]
- inhibition at 10 µM [1]: ≥ 30%

Compound: COC(=O)CC(SCCNC(=O)CCNC(=O)[C@H](O)C(C)(C)COC(C)=O)C(=O)OC (stereo partly drawn) [Compound 149, 1,4-dimethyl 2-[(2-[3-[(2R)-4-(acetyloxy)-2-hydroxy-3,3-dimethylbutanamido]propanamido]ethyl)sulfanyl]butanedioate]
- % increase in VEGRII ([2]; 10 uM): ≥10%
- inhibition at 10 µM [2, 5]: ≥ 10%

Compound: CC(C)(CO)[C@@H](O)C(=O)NCCC(=O)NCCSC(=O)[C@@H](N)Cc1ccc(O)c(O)c1 [Compound 371, (2R)—N-[2-[(2-[[(2S)-2-amino-3-(3,4-dihydroxyphenyl)propanoyl]sulfanyl]ethyl)carbamoyl]ethyl]-2,4-dihydroxy-3,3-dimethylbutanamide]
- inhibition at 50 µM [1]: ≥ 30%
- inhibition at 10 µM [2, 7]: ≥ 10%
- inhibition at 10 µM ([3]; read-out: % decrease in sIL-17): ≥ 20%

Compound: CCCCCCC(=O)SCCNC(=O)CCNC(=O)[C@H](O)C(C)(C)CO [Compound 372, (2R)—N-(2-[[2-(heptanoylsulfanyl)ethyl]carbamoyl]ethyl)-2,4-dihydroxy-3,3-dimethylbutanamide]
- inhibition at 1 µM [2, 8]: ≥ 10%
- activation at 1 µM ([3]; read-out: % increase in sIL-6): ≥ 10%

Compound: CC(=O)SCCNC(=O)CCNC(=O)[C@H](O)C(C)(C)COC(=O)[C@@H](N)Cc1ccc(O)c(O)c1 [Compound 498, (3R)-3-[(2-[[2-(acetylsulfanyl)ethyl]carbamoyl]ethyl)carbamoyl]-3-hydroxy-2,2-dimethylpropyl (2S)-2-amino-3-(3,4-dihydroxyphenyl)propanoate]
- inhibition at 50 µM [1]: ≥ 30%
- inhibition at 1 µM [2, 8]: ≥ 10%
- inhibition at 10 µM [2, 7]: ≥ 10%
- activation at 10 µM ([3]; read-out: % increase in sIL-6): ≥ 10%

Compound: CC(C)(COC(=O)OCC[N+](C)(C)C)[C@@H](O)C(=O)NCCC(=O)NCCSC(=O)CCC(=O)O [Compound 116, [2-([[(3R)-3-[[2-([2-[(3-carboxypropanoyl)sulfanyl]ethyl]carbamoyl)ethyl]carbamoyl]-3-hydroxy-2,2-dimethylpropoxy]carbonyl]oxy)ethyl]trimethylazanium]
- inhibition at 10 µM [1]: ≥ 30%
